Test results published in ChEMBL document CHEMBL4715749, “Synthesis of 17β-N-arylcarbamoylandrost-4-en-3-one derivatives and their anti-proliferative effect on human androgen-sensitive LNCaP cell line” (Eur J Med Chem, 2016).
Calls of active or inactive are those of the source. No cut-off for these calls is given here.

How the values were obtained:
[1] = Cytotoxicity against Wistar rat PBMC assessed as inhibition of cell growth at 50 uM incubated for 24 hrs by sulforhodamine B assay relative to control; type: tissue-based; conditions: for Activity: pbmc, 24 h, 50 µM; for inhibition at 24 h, 50 µM: Wistar, peripheral blood mononuclear cells (PBMC)
[2] = test system: LNCaP; assay: Antiproliferative activity against androgen-sensitive human LNCAP cells assessed as inhibition of DHT-induced cell growth at 50 uM incubated for 48 hrs by sulforhodamine B assay relative to control; type: functional
[3] = test system: LNCaP; assay: Antiproliferative activity against androgen-sensitive human LNCAP cells assessed as inhibition of testosterone-induced cell growth at 50 uM incubated for 48 hrs by sulforhodamine B assay relative to control; type: functional
[4] = test system: LNCaP; assay: Antiproliferative activity against androgen-sensitive human LNCAP cells assessed as inhibition of cell growth at 50 uM incubated for 48 hrs by sulforhodamine B assay relative to control; type: functional
[5] = test system: PC-3; assay: Growth inhibition of androgen-insensitive human PC3 cells incubated for 48 hrs by sulforhodamine B assay; type: functional
[6] = test system: LNCaP; assay: Growth inhibition of androgen-sensitive human LNCAP cells incubated for 48 hrs by sulforhodamine B assay; type: functional

Structure (SMILES) | Activity [1] | inhibition at 50 µM [2] [%] | inhibition at 50 µM [3] [%] | inhibition at 50 µM [4] [%] | inhibition at 24 h, 50 µM [1] [%] | GI50 [5] [µM] | GI50 [6] [µM] | inhibition [2]
C[C@]12CC[C@H]3[C@@H](CCC4=CC(=O)CC[C@@]43C)[C@@H]1CC[C@@H]2C(=O)N1CCc2ccccc21 | Non-Toxic | 52.6 | 49.9 | 69.1 | – | – | – | –
C[C@]12CC[C@H]3[C@@H](CCC4=CC(=O)CC[C@@]43C)[C@@H]1CC[C@@H]2C(=O)Nc1ccc(Cl)cc1 | Non-Toxic | 13.4 | 1.6 | -6.1 | – | – | – | –
Cc1ccc(NC(=O)[C@H]2CC[C@H]3[C@@H]4CCC5=CC(=O)CC[C@]5(C)[C@H]4CC[C@]23C)cc1 | – | 27.5 | 43.3 | 25.6 | 13 | – | – | –
CC(C)C(=O)Nc1ccc([N+](=O)[O-])c(C(F)(F)F)c1 [FLUTAMIDE] | Non-Toxic | 25.1 | 29.6 | -3.4 | – | – | – | –
C[C@]12CC[C@H]3[C@@H](CCC4=CC(=O)CC[C@@]43C)[C@@H]1CC[C@@H]2C(=O)Nc1nccs1 | – | 100 | 100 | 100 | 16.8 | 6.6 | 16 | –
CC(C)(C)NC(=O)[C@H]1CC[C@H]2[C@@H]3CC[C@H]4NC(=O)C=C[C@]4(C)[C@H]3CC[C@]12C [FINASTERIDE] | – | – | 21.1 | 34.6 | 3.7 | – | – | inactive
C[C@]12CC[C@H]3[C@@H](CCC4=CC(=O)CC[C@@]43C)[C@@H]1CC[C@@H]2C(=O)Nc1ccccc1 | – | 59.4 | 66.2 | 40.9 | 8.7 | – | – | –
COc1ccc(NC(=O)[C@H]2CC[C@H]3[C@@H]4CCC5=CC(=O)CC[C@]5(C)[C@H]4CC[C@]23C)cc1 | – | 29.7 | 38.6 | 48.7 | 7.9 | – | – | –
CC(=O)N1CCN(c2ccc(OCC3COC(Cn4ccnc4)(c4ccc(Cl)cc4Cl)O3)cc2)CC1 (centres undefined) [KETOCONAZOLE] | – | 68.2 | 76 | 82.7 | – | 11.7 | 25 | –
C[C@]12CC[C@H]3[C@@H](CCC4=CC(=O)CC[C@@]43C)[C@@H]1CC[C@@H]2C(=O)Nc1ccc(F)cc1 | – | 29 | 44.3 | 29.1 | 4.1 | – | – | –
C[C@]12CC[C@H]3[C@@H](CCC4=CC(=O)CC[C@@]43C)[C@@H]1CC[C@@H]2C(=O)Nc1cc(C(F)(F)F)cc(C(F)(F)F)c1 | – | 100 | 100 | 100 | 9.1 | 14.2 | 12.8 | –
